Six compounds from ChEMBL document CHEMBL5331047 (Eur J Med Chem, 2022) can be followed below.

Each structure is given as a SMILES string.

The target in data set [1] is Neuraminidase (Influenza A virus, UniProt B4URF0).
A short description of data set [2]: Oral bioavailability in ferret at 10 mg/kg measured upto 24 hrs by LC-MS/MS assay. Conditions: in vivo. In kind it is ADME, organism-based, Mustela putorius furo.
Data set [3] can be described thus: Cmax in rat at 20 mg/kg. Details: dose 20 mg/kg. In kind it is ADME, organism-based. Conditions: in vivo.
Data set [4] can be described thus: AUC in rat at 20 mg/kg. In kind it is ADME, organism-based. Further details: dose 20 mg/kg. To be noted: in vivo.
Data set [5] in a line: Oral bioavailability in rat. To be noted: in vivo. In kind it is ADME, organism-based.
In data set [6] the test system is Influenza A virus. Put plainly: Antiviral activity against influenza A virus H5N1 infected in dog MDCK cells assessed as viral growth inhibition. In kind it is functional, organism-based.
A short description of data set [7]: Cmax in rat at 10 mg/kg. In kind it is ADME, organism-based. Further details: dose 10 mg/kg. To be noted: in vivo.
Data set [8] is described as follows: AUC in rat at 10 mg/kg. In kind it is ADME, organism-based. Details: dose 10 mg/kg. Conditions: in vivo.

With `CC(=O)N[C@@H]1[C@@H](N)CC(C(=O)O)=C[C@H]1OC1CCSC1` (some centres undefined), in data set [1], the IC50 came out at 0.0029 µM.
`CCCCCCCC(=O)OC[C@@H](O)[C@@H](OC)[C@@H]1OC(C(=O)O)=C[C@H](NC(=N)N)[C@H]1NC(C)=O` [LANINAMIVIR OCTANOATE]: the bioavailability in data set [2] worked out at 3.5%.
With `CCC(CC)O[C@@H]1C=C(C(=O)O)C[C@H](NCc2ccc(Sc3ccccc3)cc2)[C@H]1NC(C)=O`, in data set [3], the Cmax was determined as 0.407 µg/mL. Moreover, the AUC in data set [4] worked out at 1.5 µg·h/mL.
For `CCC(CC)[C@H](NC(C)=O)[C@@H]1[C@H](O)[C@@H](C(=O)O)C[C@H]1NC(=N)N` [PERAMIVIR ANHYDROUS], the bioavailability in data set [5] was determined as 2.5%.
In the case of `CCC(CC)O[C@@H]1C=C(C(=O)O)C[C@H](NC(=O)COCCOCCOCCOCCN[C@H](C(=O)N2C[C@H](O)CC2C(=O)NCc2ccc(-c3scnc3C)cc2)C(C)(C)C)[C@H]1NC(C)=O` (some centres undefined), in data set [6], the EC50 is 0.29 µM.
In data set [7], `CCC(CC)O[C@@H]1C=C(C(=O)O)CC(N)[C@H]1NC(C)=O` (some centres undefined) gave a Cmax of 0.03 µg/mL. This compound also registered an AUC in data set [8] of 0.3 µg·h/mL. Further, the EC50 in data set [6] worked out at 2.3 µM.

For orientation: IC50 means the concentration that inhibits the measured activity by half. Higher therefore signals weaker potency in that assay. A word on the bioavailability: it is dose-corrected exposure relative to a reference, in per cent. As a reminder, the Cmax is the peak of the concentration-time curve. One may read the AUC as the area under the concentration-time curve, a measure of exposure. Low values mean less exposure, high ones more exposure. Usually EC50 stands for the concentration giving half of the maximal effect.
